Entries after “also recorded” stand apart in the source; their conditions may differ.
How the values were obtained:
[1] = test system: RED STAR Ethanol Red yeast; test: Fermentation of detoxified fully unwashed pretreated corn stover (fuwPCS) filtrate, Example 1; format: cell-based; conditions: for average ethanol yield: 24 hours fermentation, 0.2 g/L yeast, 32° C., pH 5.0
Method: Yeast Preparation: Freeze-dried RED STAR™ Ethanol Red yeast re-hydrated in 10×YP media for 30 minutes at 32° C. It was dosed into the fermentations at a dose of 0.2 g/L.
Dilute acid steam exploded corn stover (PCS) was diluted with water and adjusted to pH 5.0 with NH4OH. The total solids (TS) level was 15 wt.-%. This sample was then saccharified for 63 hours at 50° C. with Cellutolytic Preparation A. Penicillin was added at a rate of 1 gl/L also added prior to saccharification was citrate buffer at a rate of 50 mL of 1 M citrate buffer per 100 ml of substrate. Following the saccharification step, the sample was filtered via a 0.2 micron Nalgene vacuum fitter system (Product # 8-000043-0803) to remove the solids and used for fermentation. The fuwPCS was then pipetted into separate sterile, 15 mL conical centrifuge tubes containing a small CO2 vent hole.
The pH was adjusted to about 2 using H2SO4; gallic acid was dosed at concentrations of 2 mM (GaA-L) and at 10 mM (GaA-H). The gallic acid was prepared by sonicating […] of garlic acid in 100 ml of de-ionized water. The broth was allowed to stand at 20° C. overnight and then readjusted to pH 5 using NaOH before adding yeast.
The dosing for amidase was carried out by treating with 5.6 Units/5 g substrate (AMD-L) and also 56 Units/5 g substrate (AMD-H). The amidase treated samples were brought to a pH of 7 with NaOH and allowed to sit in an oven at a temperature of 37° C. for 18 hours as a pre-treatment.
Fermentations were carried out in sterile 15 mL conical plastic centrifuge tubes at 32° C. for 48 hours at pH 5.0. A total of 5 grams of sample was fermented for each treatment. Treatments were run in triplicate.
Fermentation samples were collected after 24 hours for the 0.2 g/L yeast dose and analyzed for acetic acid and ethanol using an Agilent HPLC System with an analytical BIO-RAD Aminex HPX-87H column and a BIO-RAD Cation H refill guard column.

[2] = test system: RED STAR Ethanol Red yeast; test: Fermentation of enzyme-detoxified fuwPCS filtrate at 37° C., Example 2; format: cell-based; conditions: detoxified 19 hours
Method: Dilute acid steam exploded corn stover (PCS) was diluted with water and adjusted to pH 5.0 with NH4OH. The total solids (TS) level was 16%. This sample was then saccharified for 72 hours at 50° C. with Cellulolytic Preparation A. Penicillin and citrate buffer were also added prior to saccharification. Following the saccharification step, the sample was filtered to remove the solids and the filtrate was used for fermentation. The fuwPCS was then pipetted into separate sterile, 15 mL conical centrifuge tubes containing a small CO2 vent hole.
Freeze-dried RED STAR™ Ethanol Red yeast was re-hydrated in 10×YP media for 30 minutes at 32° C. it was dosed into the fermentations at a dose of 0.2 g/L.
Filtered, unwashed PCS was detoxified for 19 hours using the optimal conditions for each enzyme. For amidase, the pH of the fuwPCS was first adjusted up to 7.0 using NaOH, the amidase was added at the tested dosages, and the tubes were incubated at 37° C. The pH of the fuwPCS was then readjusted to 5.0 using H2SO4 prior to fermentation. For the carbonic anhydrase the pH was left at 5.0, the enzyme was added and the tubes were incubated at 37° C. All enzymes were diluted with de-ionized water prior to dosing. Dosing ranges for each enzyme were as follows in units/mL of the final solution for amidase and kilo units/mL for carbonic anhydrase.
A total of 3.5 grams of sample was fermented for each treatment and the initial pH for all fermentations was 5.0. Treatments were run in triplicate. The final TS level was 13.7 wt.-%. These fermentations were run at a higher temperature of 37° C.
Fermentation samples were collected after 12 and 24 hours and analyzed for ethanol using an Agilent HPLC System with an analytical BIO-RAD Aminex HPX-87H column and a BIO-RAD Cation-H refill guard column.

## amidase: amidase from Pseudomonas aeruginosa (Sigma Product # A6691)
[1]; amidase high dose (AMD-H) 56 Units/5 g substrate, pre-treatment pH 7, 37° C., 18 hours
  average ethanol yield: 23.6 g/L
[1]; amidase low dose (AMD-L) 5.6 Units/5 g substrate, pre-treatment pH 7, 37° C., 18 hours
  average ethanol yield: 21.8 g/L
[2]; all amidase doses tested (0.3-1.1-5.4-16.1), pH 7.0, 37° C., after 12 hours of fermentation
  effect on ethanol production by the yeast: significant boosting effect
[2]; all amidase doses tested (0.3-1.1-5.4-16.1), pH 7.0, 37° C., after 24 hours of fermentation
  effect on ethanol production by the yeast: boost in ethanol yield; also recorded: significant boosting effect

## carbonic anhydrase: carbonic anhydrase from bovine erythrocytes (lyophilized powder, ≧2,500 W-A units/mg protein) Sigma Product # C3934
[2]; highest dose of carbonic anhydrase (33.3; 243 kilo units/g TS), pH 5.0, 37° C., after 12 hours of fermentation
  effect on ethanol production by the yeast: boost in ethanol production; also recorded: significant boosting effects
[2]; highest dose of carbonic anhydrase (33.3; 243 kilo units/g TS), pH 5.0, 37° C., after 24 hours of fermentation
  effect on ethanol production by the yeast: significant boosting effects

## O=C(O)c1cc(O)c(O)c(O)c1 [Gallic acid, 3,4,5-trihydroxybenzoic acid]
[1]; gallic acid high dose (GaA-H) 10 mM, pH about 2, 20° C. overnight
  average ethanol yield: 17.8 g/L
[1]; gallic acid low dose (GaA-L) 2 mM, pH about 2, 20° C. overnight
  average ethanol yield: 19.4 g/L
[1]; gallic acid versus control, FIG. 2
  amount of acetic acid present in the fermentation: significant drop
